Results published in patent publication US10167262B2, “Herbicidal substituted 3-arylpyrazoles” (FMC CORPORATION, priority 2014, dated 2019).

These compounds were tested on barnyardgrass (Echinochloa crus-galli) (assay: Test B flooded paddy test, plant response rating 0-100). Details: Flood, 250 g ai/ha; scale 0 to 100 (0 no effect, 100 complete control); 13 to 15 days.
Assay type: in vivo
In short: (§1)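 Pots were flooded to 3 cm above the soil surface at treatment, compound applied directly to the paddy water, and that depth held throughout. Plants were kept in a greenhouse for 13 to 15 days, then visually rated against untreated controls.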

Structure (SMILES)	Plant response rating, Barnyardgrass
O=C(c1ccccc1)c1cn(S(=O)(=O)CCl)nc1-c1cc(Cl)cc(Cl)c1 [Compound 1]	0
COC(OC)(c1ccccc1)c1c[nH]nc1-c1cc(Cl)cc(Cl)c1 [Compound 13, 3-(3,5-dichlorophenyl)-4-(dimethoxyphenylmethyl)-1H-pyrazole]	0

Each compound was assayed on ducksalad (Heteranthera limosa) in the same assay as above. Details: Flood, 250 g ai/ha; scale 0 to 100 (0 no effect, 100 complete control); 13 to 15 days.
Assay type: in vivo
In short: as §1

Structure (SMILES)	Plant response rating, Ducksalad
O=C(c1ccccc1)c1cn(S(=O)(=O)CCl)nc1-c1cc(Cl)cc(Cl)c1 [Compound 1]	0
COC(OC)(c1ccccc1)c1c[nH]nc1-c1cc(Cl)cc(Cl)c1 [Compound 13, 3-(3,5-dichlorophenyl)-4-(dimethoxyphenylmethyl)-1H-pyrazole]	0

The compounds below were run on rice (Oryza sativa) in the same assay as above. Details: Flood, 250 g ai/ha; scale 0 to 100 (0 no effect, 100 complete control); 13 to 15 days.
Assay type: in vivo
In short: as §1

Structure (SMILES)	Plant response rating, Rice
O=C(c1ccccc1)c1cn(S(=O)(=O)CCl)nc1-c1cc(Cl)cc(Cl)c1 [Compound 1]	0
COC(OC)(c1ccccc1)c1c[nH]nc1-c1cc(Cl)cc(Cl)c1 [Compound 13, 3-(3,5-dichlorophenyl)-4-(dimethoxyphenylmethyl)-1H-pyrazole]	0

The compounds below were run on sedge, umbrella (small-flower umbrella sedge, Cyperus difformis) in the same assay as above. Details: Flood, 250 g ai/ha; scale 0 to 100 (0 no effect, 100 complete control); 13 to 15 days.
Assay type: in vivo
In short: as §1

Structure (SMILES)	Plant response rating, Sedge, Umbrella
O=C(c1ccccc1)c1cn(S(=O)(=O)CCl)nc1-c1cc(Cl)cc(Cl)c1 [Compound 1]	0
COC(OC)(c1ccccc1)c1c[nH]nc1-c1cc(Cl)cc(Cl)c1 [Compound 13, 3-(3,5-dichlorophenyl)-4-(dimethoxyphenylmethyl)-1H-pyrazole]	0

The compounds below were run on barnyardgrass (Echinochloa crus-galli) (assay: Test C pre-/postemergence greenhouse test, plant response rating 0-100). Details: Postemergence, 31 g ai/ha.
Assay type: in vivo
In short: (§2)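 Plants were treated either at seeding (soil of loam and sand) or as 2–18 cm seedlings in a sphagnum peat mix, using test chemicals in a surfactant-containing non-phytotoxic solvent. Visual assessment relative to controls followed 13–15 days later.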

Structure (SMILES)	Plant response rating (0 to 100), Barnyardgrass
O=C(c1ccccc1)c1cn(S(=O)(=O)CCl)nc1-c1cc(Cl)cc(Cl)c1 [Compound 1]	0

Same assay, conditions: Postemergence, 62 g ai/ha

Structure (SMILES)	Plant response rating (0 to 100), Barnyardgrass
O=C(c1ccccc1)c1cn(S(=O)(=O)CCl)nc1-c1cc(Cl)cc(Cl)c1 [Compound 1]	0
COC(OC)(c1ccccc1)c1c[nH]nc1-c1cc(Cl)cc(Cl)c1 [Compound 13, 3-(3,5-dichlorophenyl)-4-(dimethoxyphenylmethyl)-1H-pyrazole]	0

Same assay, conditions: Postemergence, 125 g ai/ha; scale 0 to 100

Structure (SMILES)	Plant response rating, Barnyardgrass
O=C(c1ccccc1)c1cn(S(=O)(=O)CCl)nc1-c1cc(Cl)cc(Cl)c1 [Compound 1]	0
COC(OC)(c1ccccc1)c1c[nH]nc1-c1cc(Cl)cc(Cl)c1 [Compound 13, 3-(3,5-dichlorophenyl)-4-(dimethoxyphenylmethyl)-1H-pyrazole]	0

Same assay, conditions: Postemergence, 250 g ai/ha; scale 0 to 100

Structure (SMILES)	Plant response rating, Barnyardgrass
O=C(c1ccccc1)c1cn(S(=O)(=O)CCl)nc1-c1cc(Cl)cc(Cl)c1 [Compound 1]	0
COC(OC)(c1ccccc1)c1c[nH]nc1-c1cc(Cl)cc(Cl)c1 [Compound 13, 3-(3,5-dichlorophenyl)-4-(dimethoxyphenylmethyl)-1H-pyrazole]	0

Same assay, conditions: Postemergence, 500 g ai/ha; scale 0 to 100

Structure (SMILES)	Plant response rating, Barnyardgrass
COC(OC)(c1ccccc1)c1c[nH]nc1-c1cc(Cl)cc(Cl)c1 [Compound 13, 3-(3,5-dichlorophenyl)-4-(dimethoxyphenylmethyl)-1H-pyrazole]	0

Same assay, conditions: Preemergence, 62 g ai/ha

Structure (SMILES)	Plant response rating, Barnyardgrass
COC(OC)(c1ccccc1)c1c[nH]nc1-c1cc(Cl)cc(Cl)c1 [Compound 13, 3-(3,5-dichlorophenyl)-4-(dimethoxyphenylmethyl)-1H-pyrazole]	0

Same assay, conditions: Preemergence, 125 g ai/ha

Structure (SMILES)	Plant response rating, Barnyardgrass
COC(OC)(c1ccccc1)c1c[nH]nc1-c1cc(Cl)cc(Cl)c1 [Compound 13, 3-(3,5-dichlorophenyl)-4-(dimethoxyphenylmethyl)-1H-pyrazole]	0

Same assay, conditions: Preemergence, 250 g ai/ha

Structure (SMILES)	Plant response rating, Barnyardgrass
COC(OC)(c1ccccc1)c1c[nH]nc1-c1cc(Cl)cc(Cl)c1 [Compound 13, 3-(3,5-dichlorophenyl)-4-(dimethoxyphenylmethyl)-1H-pyrazole]	0

Same assay, conditions: Preemergence, 500 g ai/ha

Structure (SMILES)	Plant response rating, Barnyardgrass
COC(OC)(c1ccccc1)c1c[nH]nc1-c1cc(Cl)cc(Cl)c1 [Compound 13, 3-(3,5-dichlorophenyl)-4-(dimethoxyphenylmethyl)-1H-pyrazole]	0

Each compound was assayed on oilseed rape (Brassica napus) in the same assay as above. Details: Postemergence, 62 g ai/ha.
Assay type: in vivo
In short: as §2

Structure (SMILES)	Plant response rating (0 to 100), Oilseed Rape
O=C(c1ccccc1)c1cn(S(=O)(=O)CCl)nc1-c1cc(Cl)cc(Cl)c1 [Compound 1]	50
COC(OC)(c1ccccc1)c1c[nH]nc1-c1cc(Cl)cc(Cl)c1 [Compound 13, 3-(3,5-dichlorophenyl)-4-(dimethoxyphenylmethyl)-1H-pyrazole]	40

Same assay, conditions: Postemergence, 125 g ai/ha

Structure (SMILES)	Plant response rating (0 to 100), Oilseed Rape
O=C(c1ccccc1)c1cn(S(=O)(=O)CCl)nc1-c1cc(Cl)cc(Cl)c1 [Compound 1]	80
COC(OC)(c1ccccc1)c1c[nH]nc1-c1cc(Cl)cc(Cl)c1 [Compound 13, 3-(3,5-dichlorophenyl)-4-(dimethoxyphenylmethyl)-1H-pyrazole]	55

Same assay, conditions: Postemergence, 250 g ai/ha; scale 0 to 100

Structure (SMILES)	Plant response rating, Oilseed Rape
O=C(c1ccccc1)c1cn(S(=O)(=O)CCl)nc1-c1cc(Cl)cc(Cl)c1 [Compound 1]	95
COC(OC)(c1ccccc1)c1c[nH]nc1-c1cc(Cl)cc(Cl)c1 [Compound 13, 3-(3,5-dichlorophenyl)-4-(dimethoxyphenylmethyl)-1H-pyrazole]	50

Same assay, conditions: Postemergence, 500 g ai/ha; scale 0 to 100

Structure (SMILES)	Plant response rating, Oilseed Rape
COC(OC)(c1ccccc1)c1c[nH]nc1-c1cc(Cl)cc(Cl)c1 [Compound 13, 3-(3,5-dichlorophenyl)-4-(dimethoxyphenylmethyl)-1H-pyrazole]	70

Same assay, conditions: Preemergence, 62 g ai/ha

Structure (SMILES)	Plant response rating, Oilseed Rape
COC(OC)(c1ccccc1)c1c[nH]nc1-c1cc(Cl)cc(Cl)c1 [Compound 13, 3-(3,5-dichlorophenyl)-4-(dimethoxyphenylmethyl)-1H-pyrazole]	50

Same assay, conditions: Preemergence, 125 g ai/ha

Structure (SMILES)	Plant response rating, Oilseed Rape
COC(OC)(c1ccccc1)c1c[nH]nc1-c1cc(Cl)cc(Cl)c1 [Compound 13, 3-(3,5-dichlorophenyl)-4-(dimethoxyphenylmethyl)-1H-pyrazole]	20

Same assay, conditions: Preemergence, 250 g ai/ha

Structure (SMILES)	Plant response rating, Oilseed Rape
COC(OC)(c1ccccc1)c1c[nH]nc1-c1cc(Cl)cc(Cl)c1 [Compound 13, 3-(3,5-dichlorophenyl)-4-(dimethoxyphenylmethyl)-1H-pyrazole]	30

Same assay, conditions: Preemergence, 500 g ai/ha

Structure (SMILES)	Plant response rating, Oilseed Rape
COC(OC)(c1ccccc1)c1c[nH]nc1-c1cc(Cl)cc(Cl)c1 [Compound 13, 3-(3,5-dichlorophenyl)-4-(dimethoxyphenylmethyl)-1H-pyrazole]	98

Each compound was assayed on waterhemp (common waterhemp, Amaranthus rudis) in the same assay as above. Details: Postemergence, 62 g ai/ha.
Assay type: in vivo
In short: as §2

Structure (SMILES)	Plant response rating (0 to 100), Waterhemp
O=C(c1ccccc1)c1cn(S(=O)(=O)CCl)nc1-c1cc(Cl)cc(Cl)c1 [Compound 1]	90
COC(OC)(c1ccccc1)c1c[nH]nc1-c1cc(Cl)cc(Cl)c1 [Compound 13, 3-(3,5-dichlorophenyl)-4-(dimethoxyphenylmethyl)-1H-pyrazole]	100

Same assay, conditions: Postemergence, 125 g ai/ha

Structure (SMILES)	Plant response rating (0 to 100), Waterhemp
O=C(c1ccccc1)c1cn(S(=O)(=O)CCl)nc1-c1cc(Cl)cc(Cl)c1 [Compound 1]	90
COC(OC)(c1ccccc1)c1c[nH]nc1-c1cc(Cl)cc(Cl)c1 [Compound 13, 3-(3,5-dichlorophenyl)-4-(dimethoxyphenylmethyl)-1H-pyrazole]	100

Same assay, conditions: Postemergence, 250 g ai/ha; scale 0 to 100

Structure (SMILES)	Plant response rating, Waterhemp
O=C(c1ccccc1)c1cn(S(=O)(=O)CCl)nc1-c1cc(Cl)cc(Cl)c1 [Compound 1]	98
COC(OC)(c1ccccc1)c1c[nH]nc1-c1cc(Cl)cc(Cl)c1 [Compound 13, 3-(3,5-dichlorophenyl)-4-(dimethoxyphenylmethyl)-1H-pyrazole]	100

Same assay, conditions: Postemergence, 500 g ai/ha; scale 0 to 100

Structure (SMILES)	Plant response rating, Waterhemp
COC(OC)(c1ccccc1)c1c[nH]nc1-c1cc(Cl)cc(Cl)c1 [Compound 13, 3-(3,5-dichlorophenyl)-4-(dimethoxyphenylmethyl)-1H-pyrazole]	100

Same assay, conditions: Preemergence, 62 g ai/ha

Structure (SMILES)	Plant response rating, Waterhemp
COC(OC)(c1ccccc1)c1c[nH]nc1-c1cc(Cl)cc(Cl)c1 [Compound 13, 3-(3,5-dichlorophenyl)-4-(dimethoxyphenylmethyl)-1H-pyrazole]	100

Same assay, conditions: Preemergence, 125 g ai/ha

Structure (SMILES)	Plant response rating, Waterhemp
COC(OC)(c1ccccc1)c1c[nH]nc1-c1cc(Cl)cc(Cl)c1 [Compound 13, 3-(3,5-dichlorophenyl)-4-(dimethoxyphenylmethyl)-1H-pyrazole]	100

Same assay, conditions: Preemergence, 250 g ai/ha

Structure (SMILES)	Plant response rating, Waterhemp
COC(OC)(c1ccccc1)c1c[nH]nc1-c1cc(Cl)cc(Cl)c1 [Compound 13, 3-(3,5-dichlorophenyl)-4-(dimethoxyphenylmethyl)-1H-pyrazole]	100

Same assay, conditions: Preemergence, 500 g ai/ha

Structure (SMILES)	Plant response rating, Waterhemp
COC(OC)(c1ccccc1)c1c[nH]nc1-c1cc(Cl)cc(Cl)c1 [Compound 13, 3-(3,5-dichlorophenyl)-4-(dimethoxyphenylmethyl)-1H-pyrazole]	100

Each compound was assayed on waterhemp_RES2, (ALS & HPPD resistant common waterhemp, Amaranthus rudis) (assay: Test E postemergence greenhouse test, plant response rating 0-100). Details: 31 g ai/ha, scale 0 to 100.
Assay type: in vivo
In short: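 Resistant waterhemp biotypes grown in peat/vermiculite medium and treated postemergence at 2–18 cm height (1- to 4-leaf stage). Kept in greenhouse 14 to 21 days, then visually rated against untreated controls on a 0–100 scale (0 no effect, 100 complete control).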

Structure (SMILES)	Plant response rating, Waterhemp_RES2
O=C(c1ccccc1)c1cn(S(=O)(=O)CCl)nc1-c1cc(Cl)cc(Cl)c1 [Compound 1]	40

Same assay, conditions: 125 g ai/ha, scale 0 to 100

Structure (SMILES)	Plant response rating, Waterhemp_RES2
O=C(c1ccccc1)c1cn(S(=O)(=O)CCl)nc1-c1cc(Cl)cc(Cl)c1 [Compound 1]	35
COC(OC)(c1ccccc1)c1c[nH]nc1-c1cc(Cl)cc(Cl)c1 [Compound 13, 3-(3,5-dichlorophenyl)-4-(dimethoxyphenylmethyl)-1H-pyrazole]	75

Same assay, conditions: 250 g ai/ha, scale 0 to 100

Structure (SMILES)	Plant response rating, Waterhemp_RES2
O=C(c1ccccc1)c1cn(S(=O)(=O)CCl)nc1-c1cc(Cl)cc(Cl)c1 [Compound 1]	98

Same assay, conditions: 500 g ai/ha, scale 0 to 100

Structure (SMILES)	Plant response rating, Waterhemp_RES2
O=C(c1ccccc1)c1cn(S(=O)(=O)CCl)nc1-c1cc(Cl)cc(Cl)c1 [Compound 1]	98
COC(OC)(c1ccccc1)c1c[nH]nc1-c1cc(Cl)cc(Cl)c1 [Compound 13, 3-(3,5-dichlorophenyl)-4-(dimethoxyphenylmethyl)-1H-pyrazole]	95
